These are literature values, as cited in patent US5138036A, “Isolation and structural elucidation of the cytostatic cyclodepsipeptide dolastatin 14” (Arizona Board of Regents acting on behalf of Arizona State …, priority 1989, dated 1992).

One data set concerns B16 melanoma. The conditions noted are these: 1.44-11.1 μg/kg.
For data set [1], the system named is P388 lymphocytic leukemia (PS system). Conditions: 1-4 μg/kg.
In a further data set the test system is human melanoma xenograph. Conditions: 3.25-26 μg/kg.

Molecules are shown by their SMILES.

Regarding `CC[C@H](C)[C@@H]([C@@H](CC(=O)N1CCC[C@H]1[C@H](OC)[C@@H](C)C(=O)N[C@@H](Cc1ccccc1)c1nccs1)OC)N(C)C(=O)[C@@H](NC(=O)[C@H](C(C)C)N(C)C)C(C)C` [dolastatin 10], the life extension is recorded as 42-138% in the data set on B16 melanoma and 69-102% in data set [1]. For the same compound, the curative response in the data set on human melanoma xenograph was 17-67%.
